Results published in US5770688A, “Method and composition for the treatment of mammalian HIV infection” (GSF-Forschungszentrum fur Umwelt und Gesundheit GmbH, priority 1989, dated 1998).

What was measured:
[1] = system: HIV; experiment: HIV release from chronically infected cells (Biomek 1000); type: cell-based; conditions: for inhibition of viral cell (HIV) release from infected cells, in words: FIGS. 6-19; for overall effect, in words: FIGS. 20-29
Description: (§1) A series of experiments and which are illustrated graphically in FIGS. 6 through 34, respectively, were designed to detect two extremes. In particular the tests were designed to detect the inhibition of viral release and/or the release of virus which has a reduced ability to infect other cells. This reduced ability to infect other cells is represented, for example, by glycosylation inhibitors, the direct effect on virus release is represented by acylation inhibitors, RT inhibitors and melittin (Seq. ID NO:1). The most important feature of this experimental design, however, is to detect the toxicity of melittin. The present experiments were carried out on both the astrocytoma cell line LC5-HIV (cloned infected cells) and T-lymphocytoma cell line KE37-1/IIIβ (cloned infected cells with HTLV-IIIβ). In both cases the results were essentially identical.
(§2) In the present series of experiments HIV release was tested by a fully automated laboratory robot system and which is manufactured by Beckman Instruments as the Biomek 1000. This system performed the following steps. First, chronically infected cells (cloned) are plated in microtiter plates and grown for a period of seven days. They are then challenged by melittin (Seq. ID NO:1) during this period either for the final day or throughout the period as shown in the figures. The number of living cells are quantified by MTT, that is by a metabolic (dehydrogenase) test. The MTT test is automatically performed. The toxic effect is detected at the time of the experiment and not in a separate control experiment. Furthermore, the supernatant, and which contains released virus cells from the period of time which elapsed from the last wash, and which may vary from 24 hours to 7 days, is collected from the culture, and an aliquot is saved for virus quantification by employing antigen or viral enzyme reverse transcriptase (RT). Furthermore, an aliquot is added to a culture of uninfected cells in microtiter plates for subsequent measurement of the ability of the virus cells to reinfect these uninfected cells. In this regard, the number of infected cells is automatically quantified by an immunoperoxidase staining technique. The test results, as shown, are expressed in terms of toxicity of the melittin (MTT test); the release of HIV from the primary culture (RT test); and the ability of the released virus to infect previously uninfected cells.

[2] = system: HIV-infected LC5 cells; experiment: MTT toxicity/killing of HIV infected cells (Biomek 1000); type: cell-based, human
Procedure: The KE37-1 (uninfected) and KE37-1/111β (infected) cell lines discussed below are commercially available from the Dr. Robert Gallows Laboratory of the NIH in the United States of America and grown in a medium of RPMI 1640 (GIBCO) and further supplemented with 10% fetal calf serum which contained approximately 100 units of penicillin, 100 μg streptomycin, and approximately 0.25 μg fungizone (Amphotericin B) per milliliter. The human mesenchymal cell lines LC5 and LC5-HIV, discussed below, are deposited with the Collection De L'Institut Pasteur of Paris, France on Mar. 9, 1989 and given the accession numbers I-842 and I-843, respectively. The LC5 and LC5-HIV cell lines were grown in a medium of RPMI 1640 and supplemented with 10% fetal calf serum.
as §1, §2

[3] = system: Rausher leukemia virus; conditions: 2 weeks
Procedure: The size of the spleen is taken as a measure of the progress of the disease which eventually leads to the death of the infected animals.
The test of the antiviral effect of the melittin (Seq. ID NO:1) principle was carried out on Balb C mice (12 weeks old; all males). The animals were kept in numbers of 4 per cage. The animals were infected by Rausher leukemia virus (10^5 infectious particles (viruses) per animal in a volume of 0.2 ml) by intraperitoneal injection (ip) followed by subcutaneous injection of the test substance after 10 minutes. The animals were divided into two groups referred to as controls (receiving a sham injection of saline) or test animals (receiving the melittin analogue).
The peptide was dissolved as 100 μg/ml and the controls as well as the test animals were injected with the same volume subcutaneously (0.1 ml) of PBS or PBS+test substance respectively. The injection was carried out 10 minutes after injection of the infectious virus. After 2 days the animals received a new injection of melittin analogue (10 μg/mg body weight) or PBS as a subcutaneous injection of 0.100 ml. After 4 days from the first injection a third injection was performed using 20 μg/mg body weight of melittin analogue.

Gly-Ile-Gly-Ala-Val-Leu-Lys-Val-Leu-Thr-Thr-Gly-Leu-Pro-Ala-Leu-Ile-Ser-Trp-Ile-Gly-Gly-Gly-Gly-Gly-Gly [melittin (1-20)-6-(Gly)-Amide]
inhibition of viral cell (HIV) release from infected cells, in words [1]: inhibited HIV release
inhibition of growth / survival of infected cells, in words [2]: inhibited the growth of infected cells
animals with spleens greater than 150 mg but lower than 170 mg (borderline) [3]: 25%
infected animals that do not develop disease [3]: 75%
number of animals with pathological spleen [3]: one
spleen weight of the rest of the test group [3]: 100 to 150 mg

MHC: MHC (Seq. ID NO:10), (MAJOR histocompatibility complex sequence) (VAAKANRVADEIRHKREKLE) [reference compound]
overall effect, in words [1]: do not have any readily apparent effects

Melittin COOH: Melittin COOH was tested and appeared to be less efficient than the melittin amid
efficiency compared with melittin amid [1]: less efficient than the melittin amid

control peptide: HOLST peptide (negative control); no apparent structural similarity to melittin (FAESGVDTPVFNSY) [reference compound]
overall effect, in words [1]: without effect

mastoparan [reference compound]
overall effect, in words [1]: do not have any readily apparent effects

melittin 1-20: melittin 1-20 (Seq. ID NO:7) lacks the cell binding part of the molecule
inhibition of viral cell (HIV) release from infected cells, in words [1]: inhibited HIV release as did the natural melittin and melittin (1-20)-6-(Gly)-Amide
inhibition of growth / survival of infected cells, in words [2]: inhibited the growth of infected cells
